# According to paper PMC6278353 (Molecules, 2018):
# What was measured:
# [1] = Steady-state trough serum vancomycin concentration in DFI patients and nondiabetic patients with pneumonia; format: in vivo, human; settings: 1g q12h; for Trough Concentration of vancomycin: mean ± SD, SD
# Method: Clinical samples were collected at Air Force General Hospital, PLA. […] Human blank serum was obtained from healthy blood donors not using vancomycin (Air Force General Hospital, PLA.). The study was approved by the hospital ethics committee. Every patient was given a sufficient description of the study and signed an informed consent prior to the study.
# The pretreatment followed for all samples was 10 μL of the IS was added to 20 μL of the standard and unknown serum samples and mixed vigorously for 20 s. Five-hundred microliters of acetonitrile was added, vortexed for 1 min, and centrifuged for 6 min at 12,000 rpm. After transferring the supernatant to a fresh centrifuge tube, it was evaporated to dryness under a stream of nitrogen at room temperature. Two-hundred microliters of mobile phase was added to the resulting residue and vortexed for 1 min; 100 μL was analyzed.
# Fifty diabetes mellitus type 2 patients with known or suspected Gram-positive DFI (Wagner score grade 3/4, equivalent to Texas classification of at least B3), and 50 nondiabetic patients with pneumonia requiring antibiotic therapy from 2014 to 2016 were included. […] The estimated ClCr was calculated from serum creatinine using the Cockcroft-Gault formula [29]. CrCl = (140-age in years) × body weight in kg/(serum creatinine in […]) × 0.85 for females). Statistical analysis was performed by SPSS 25.0.
# [2] = Stability of vancomycin in serum under various storage conditions (QC samples, HPLC-Q-trap-MS); format: in vitro ADME, human; settings: serum at 4 °C and 25 °C for 24 h, after three freezing and thawing cycles and stored at −80 °C for 30 days; three concentrations
# Method: The IS working solution was diluted with deionized water to give a final concentration of 100 ng/mL. Quality control (QC) samples were prepared in 100 μL of blank serum by adding 10 μL of serially diluted solutions of the substance to determine the limit of quantification, as well as 2 ng/mL (low), 20 ng/mL (medium), and 400 ng/mL (high) concentrations. The L, M, and H of QCs were analyzed at least in duplicate. All solutions were stored at −20 °C and brought to room temperature before use.
# The chromatographic separation was performed on an Agilent ZORBAX SB-C18 (4.6 × 150 mm, 5 μm). The mobile phase consisted of water (containing 0.1% formic acid, v/v) and acetonitrile (containing 0.1% formic acid, v/v) and the flow rate was set at 0.5 mL/min. An isocratic elution was performed with 30% of acetonitrile. The total run time was 8 min. The injection volume was 10 μL. […]
# The pretreatment followed for all samples was 10 μL of the IS was added to 20 μL of the standard and unknown serum samples and mixed vigorously for 20 s. […] Two-hundred microliters of mobile phase was added to the resulting residue and vortexed for 1 min; 100 μL was analyzed.
# For the bench-top stability during handing, QC samples were prepared and kept room temperature (25 °C) for 6 h. […] Stability of sample in autosampler was determined by analyzing the targets after kept in an autosampler at room temperature for 12 h.
structure (smiles),measurement,setting,value
"CN[C@H](CC(C)C)C(=O)N[C@H]1C(=O)N[C@@H](CC(N)=O)C(=O)N[C@H]2C(=O)N[C@H]3C(=O)N[C@H](C(=O)N[C@H](C(=O)O)c4cc(O)cc(O)c4-c4cc3ccc4O)[C@H](O)c3ccc(c(Cl)c3)Oc3cc2cc(c3O[C@@H]2O[C@H](CO)[C@@H](O)[C@H](O)[C@H]2O[C@H]2C[C@](C)(N)[C@H](O)[C@H](C)O2)Oc2ccc(cc2Cl)[C@H]1O [vancomycin, Vancomycin]",Trough Concentration of vancomycin,"[1]; DFI group (n = 50), type 2 diabetes patients",8.20 ± 2.83 µg/mL
same,"Trough concentration of vancomycin, range",[1]; DFI patients (n = 50),4.80 to 14.2 µg/mL
same,Trough Concentration of vancomycin,"[1]; Nondiabetic group (n = 50), pneumonia patients",15.8 ± 5.43 µg/mL
same,"Trough concentration of vancomycin, range",[1]; nondiabetic patients (n = 50),8.60 to 19.5 µg/mL
same,Stability in serum (in words),[2],stable
